First: CCNC(=O)Nc1cc(-c2c(-c3ccc(F)c(C)c3)nc3ccc(NC)nn23)ccn1
Second: Cc1nn(C)c2c(Nc3ccc(S(C)(=O)=O)cc3)nc(-c3ccc(F)cc3)nc12
The melting point of the first is higher: 263 to 264 °C for the first, 216 to 218 °C for the second.

First: CCN(CC)CCN1C(=O)C(C)(C)N=C(c2ccccc2Cl)c2cc([N+](=O)[O-])ccc21
Second: CCOC(=O)c1c(CN(CC)CC)nc2cc(OC)c(OC)cc2c1-c1ccc(F)cc1
The melting point of the first is lower: 70 °C for the first, 102 to 103 °C for the second.

Compared with `O=C(CBr)CCc1ccccc1`, `O=C(O)CCCCCCCNC(=O)C(CS)Cc1ccccc1` (configuration not stated) is higher in melting point: 39 to 40 °C for the first, 81 to 83 °C for the second.

First: C[C@@H](C(N)=O)c1ccc(NS(=O)(=O)c2ccccc2)cc1
Second: O=C(NCCCn1ccnc1)c1ccccc1NS(=O)(=O)c1ccc(I)cc1
The melting point of the first is lower: 152 to 153 °C for the first, 162 to 166 °C for the second.

First: CCCc1cc(-c2cccs2)n[nH]c1=O
Second: CCc1ccc2c(O)c(CO)cnc2c1
The melting point of the first is lower: 171 to 174 °C for the first, 180 to 182 °C for the second.

Compared with `COc1c(CC#N)c2c(c3c1OC(C)(C)C3)C(c1ccccc1)=NC(C)(C)C2`, `CC(C)CCN1CCC2(CC1)CSC1=C(O2)c2ccccc2C(=O)C1=O` is higher in melting point: 95 to 96 °C for the first, 143 to 146 °C for the second.

First: CC1(C)Cc2nc(C3CCCC3)c(C(=O)c3ccc(C(F)(F)F)cc3)c(-c3ccc(F)c(F)c3)c2C(O)C1 (configuration not stated)
Second: CC(CO)(CO)NS(=O)(=O)c1cc(NC(=O)c2cnn3c(C(F)F)cc(-c4ccc(C(F)(F)F)cc4)nc23)c(Cl)s1
The melting point of the first is lower: 166 to 168 °C for the first, 237 °C for the second.

Compared with `O=C(Nc1cccc(-n2ccnc2)c1)c1csc(-c2ccccc2)n1`, `O=C(O)CCc1oc(Sc2nncn2-c2ccccc2)nc1-c1ccc(Cl)cc1` is lower in melting point: 131 to 134 °C for the first, 122 to 123 °C for the second.

Compared with `Cc1ccc(C(=O)NCCCN(C)CCCNC(=O)c2ccc(C)c3nc4ccccc4nc23)c2nc3ccccc3nc12`, `COc1ccc(CCN(C)CCOc2ccc(NC(=O)c3cccc4c(=O)c5ccccc5n(C)c34)cc2)cc1OC` is lower in melting point: 218 to 220 °C for the first, 139 °C for the second.

First: N#Cc1ccc(-n2c(N)nc3ccccc32)cc1Cl
Second: Nc1ccncc1Oc1ccc2ccccc2c1
The melting point of the first is higher: 245 to 248 °C for the first, 117 to 118 °C for the second.

First: Cc1nc2c3c(c(C(=O)N4CCOCC4)cc2n1C)CCC(c1ccccc1)O3 (configuration not stated)
Second: CN(CCF)c1nc2cc(NC(=O)c3c(C(=O)N4CCOCC4)cnn3C)ccn2n1
The melting point of the first is higher: 291 to 293 °C for the first, 144 to 145 °C for the second.

First: CCc1nc2c(cnn2CC)c(NC2CCOCC2)c1CNC(=O)c1cccc(C(=O)NCc2cc(Cl)cc(-c3cccc(CN4CCCN(C)CC4)c3)c2)c1
Second: CN(Cc1ccc(NC(=O)C2CCS(=O)(=O)c3ccc(OCc4ccc(F)cc4)cc3C2)cc1)C1CCOCC1 (configuration not stated)
The melting point of the first is lower: 111 to 113 °C for the first, 232 to 234 °C for the second.

First: COC(=O)c1ccc(NC(C)=O)c(NC(=O)C(COC(C)=O)OC(C)=O)c1 (configuration not stated)
Second: COC(=O)CNC(=O)c1cccc(NC(=O)CCl)c1
The melting point of the first is higher: 130 to 134 °C for the first, 122 to 124 °C for the second.

First: Nc1ncccc1C(=O)NCCCOc1ccc(-c2ccc(=O)[nH]n2)cc1
Second: NC(=O)c1cc(OCCNCC(O)c2ccccc2)ccc1O (configuration not stated)
The melting point of the first is higher: 232 to 234 °C for the first, 166 to 172 °C for the second.

Compared with `COc1ccc(-c2ccc3c(c2)c2c(C=Cc4ccccc4)ccnc2n3S(=O)(=O)c2ccccc2)cc1`, `O=C(c1ccn2c1CSC2c1cccnc1)c1cn(CCO)c2cc(-c3ccc(F)cc3)ccc12` (configuration not stated) is lower in melting point: 190 to 192 °C for the first, 170 to 171 °C for the second.

First: O=C(c1cccs1)c1cnn2c(-c3cccc(-c4nnn[nH]4)c3)ccnc12
Second: CCCCOC(=O)N(C)c1cccc(-c2ccnc3c(C#N)cnn23)c1
The melting point of the first is higher: 290 °C for the first, 96 to 97 °C for the second.

Compared with `CC1(c2nn(-c3ccc(N)cc3Cl)c(=O)o2)CC1`, `Cc1ccc2c(c1)CN1CCCC1C(=O)N2C` (configuration not stated) is lower in melting point: 195 to 196 °C for the first, 80 to 82 °C for the second.

First: CCOC(=O)c1cn(C2CC2)c2c(C)c(N3CCN(C)CC3)c(F)c(Cl)c2c1=O
Second: CC(C)(C)OC(=O)n1c(=O)n(C2CC3CC(N4CCN(c5ccc(F)cc5)CC4)CC3C2)c2ccccc21 (configuration not stated)
The melting point of the first is lower: 175 to 177 °C for the first, 244 to 245 °C for the second.

First: O=c1[nH]c2cccc(C(F)(F)F)c2c(=O)o1
Second: COc1cc(Oc2cccc(C(F)(F)F)c2)nc(C(=O)NO)c1
The melting point of the first is higher: 232 to 233 °C for the first, 120 to 122 °C for the second.

Compared with `Nc1cc(Cl)cc(Cl)c1C(=O)NCc1ccc(Cl)cc1`, `Nc1nc(N)c2cc(Cc3ccc(Cl)cc3)ccc2n1` is higher in melting point: 174 to 178 °C for the first, 224 to 225 °C for the second.

Compared with `CC1=NN=C(c2cc3ccccc3s2)c2cc3oc(=O)[nH]c3cc2C1`, `COc1ccc(CNc2nc(CCC(=O)O)nc3sc4ccccc4c23)cc1Cl` is lower in melting point: 338 to 340 °C for the first, 218 °C for the second.

First: Cc1ccc(NC(=O)c2cc(Cl)ccc2NCC2CCN(C3CCSC3)CC2)nc1 (configuration not stated)
Second: CC(C)C(=O)N1CCC(NC(=O)c2ccccc2Oc2ccc(Cl)cc2Cl)CC1
The melting point of the first is higher: 151 to 153 °C for the first, 51 to 54 °C for the second.

First: CCCCCCCCCCCCc1ccc(CCC(COC(C)=O)(COC(C)=O)NC(C)=O)cc1
Second: CCCCCCCCCCc1ccc(NC(=O)c2cc(Cl)cc(Cl)c2O)cc1
The melting point of the first is higher: 111 to 113 °C for the first, 90 to 91 °C for the second.

Compared with `COC(=O)CNC(=O)NC(CSC(C)=O)Cc1ccccc1` (configuration not stated), `CC(C)(C)OC(=O)N[C@@H](Cc1ccccc1)C(=O)CCC(=O)N[C@@H](Cc1c[nH]c2ccccc12)C(=O)O` is higher in melting point: 102 °C for the first, 141 to 143 °C for the second.

Compared with `FC(F)(F)c1cccc(Oc2ccnc(-c3ccc(Cl)cc3)n2)c1`, `CSc1cc(C(F)(F)F)nn1-c1ccc(NC(=O)c2cccnc2F)cc1` is higher in melting point: 92 °C for the first, 167 to 168 °C for the second.

Compared with `CS(=O)(=O)NCC1CC2C=CC1C2` (configuration not stated), `CS(=O)(=O)OC1CCN(c2ccc(N)cc2)C1` (configuration not stated) is higher in melting point: 60 to 62 °C for the first, 203 °C for the second.

First: CN1CC=C(c2cn(C)c3ccc(NS(C)(=O)=O)cc23)CC1
Second: CON(C)C(=O)[C@H]1CCn2c(cc3ccccc32)C1
The melting point of the first is higher: 198 to 202 °C for the first, 78 to 80 °C for the second.

Compared with `O=c1[nH]c(=O)n(CCCCBr)c2cc(Cl)ccc12`, `CC(C(=O)Nc1ccccc1)n1nc(O)c2[nH]c3cc(Cl)ccc3c(=O)c2c1=O` (configuration not stated) is higher in melting point: 180 to 182 °C for the first, 215 °C for the second.

First: N#Cc1c(N2CCc3ccccc3CC2)nc[nH]c1=O
Second: COc1ccc(C(=O)N2c3ccccc3C(N3CCc4ccccc43)CC2C)cc1OC (configuration not stated)
The melting point of the first is lower: 139 to 140 °C for the first, 147 to 148 °C for the second.

Compared with `Cc1noc(-c2cccc(C3=Nc4ccc(-c5ccc(F)cc5)cc4NC(=O)C3)c2)n1`, `O=S1CSC(=C(c2ccc(F)cc2)c2ccc(F)cc2)SC1` (configuration not stated) is lower in melting point: 266 to 268 °C for the first, 155 to 156 °C for the second.

First: CCCCCCOc1ccc2c(c1)C=C(C=O)CO2
Second: CCCCc1nc2c(N)nc3ccc(OCc4ccc(OC(F)(F)F)cc4)cc3c2n1C
The melting point of the first is lower: 36 to 38 °C for the first, 219 to 220 °C for the second.

Compared with `CN(C)[C@@H]1c2ccccc2N(C(=O)c2ccc(NC(=O)c3ccccc3Cl)cc2)CC[C@H]1O` (relative stereo), `COC(=O)C1CCc2cc(OCc3ccccc3)c(OCc3ccccc3)cc2C1O` (configuration not stated) is lower in melting point: 180 to 182 °C for the first, 121 to 124 °C for the second.

First: CN1C(=O)C2CC2(c2ccc([N+](=O)[O-])cc2)C1=O (configuration not stated)
Second: COc1ccc(NC(=O)c2ccc(F)c(F)c2)cc1NS(=O)(=O)c1ccc([N+](=O)[O-])cc1
The melting point of the first is lower: 148 to 150 °C for the first, 231 to 249 °C for the second.

Going from `COc1nc(NCCNC(C)C)nc(OC)c1[N+](=O)[O-]` to `C=CS(=O)(=O)Nc1c(C)cc([N+](=O)[O-])cc1C`, the melting point falls from 135 °C to 132 °C.

Compared with `c1ccc(Cc2ccccc2C2CCN(CCCOc3ccccc3)CC2)cc1`, `NC(CO)COc1ccc(Oc2ccccc2)cc1` (configuration not stated) is lower in melting point: 139 to 140 °C for the first, 61.9 °C for the second.

First: CCCc1nc2c(N)nc3cccnc3c2n1CCCC(=O)N1CCOCC1
Second: NCC1(c2cccc(C(F)(F)F)c2)CCN(C(=O)CN2CCN(c3cnccn3)CC2)CC1
The melting point of the first is higher: 196 to 197 °C for the first, 152 to 153 °C for the second.

First: Cc1ccc2c(c1)c(Sc1ccc(Cl)cc1)c(C)n2CC(=O)O
Second: CCc1oc2ccc(Cl)cc2c1C(=O)c1ccc(Cl)c(S(N)(=O)=O)c1
The melting point of the first is higher: 219 to 221 °C for the first, 130 to 133 °C for the second.

First: Cc1ccc(C)n1-c1cccc(C(=O)O)c1
Second: COc1cc(C(=O)Cc2ccccc2)cc(Cl)c1Cl
The melting point of the first is higher: 148 to 150 °C for the first, 126 to 129 °C for the second.

Compared with `CCC(O)CNC(=O)c1n[nH]cc1NC(=O)c1ccccn1` (configuration not stated), `O=C(O)C(=O)NC1N=C2C(=Cc3ccccc32)S1` (configuration not stated) is higher in melting point: 202 to 203 °C for the first, 229 to 231 °C for the second.

First: Nc1ccc2oc3ccc(OC(F)F)c(C(=O)Nc4c(Cl)cncc4Cl)c3c2c1
Second: CC(OCc1ccc2ccccc2c1)(C(=O)Cl)C(F)(F)F (configuration not stated)
The melting point of the first is higher: > 270 °C for the first, 39 to 43 °C for the second.

`C[C@@H](NC(=O)c1c[nH]c2ncc(-c3nn(C)c4cc(C(C)(C)C)ccc34)nc12)C(=O)N1CC(C#N)C1` and `CC(=O)c1ccc(C2COc3c(C)c(C)c(NC(=O)CC(C)(C)C)c(C)c32)cc1` (configuration not stated) cannot be ordered by melting point: 180 to 195 °C for the first, 181 to 182 °C for the second.

First: CCOc1c(NCc2ccc(C#N)c(CC)c2)c(=O)c1=O
Second: CCCCc1ccc(OC)c(-c2csc(NC(=O)c3ccc(C(=O)CCN4CCC(NC(C)=O)C4)cc3)n2)c1 (configuration not stated)
The melting point of the first is higher: 239 to 242 °C for the first, 112 °C for the second.

Compared with `CC[C@H](Cn1cnnc1)n1cnc2cc3c(=O)n([C@H](CC)Cn4ncnn4)cnc3cc2c1=O`, `CCOP(=O)(OCC)Oc1cc2c(c3ccccc13)Nc1ccccc1S2` is higher in melting point: 130 to 132 °C for the first, 162 to 163 °C for the second.

Compared with `CC12CCC(=O)C(N=[N+]=[N-])=C1CCC1C2CCC2(C)C(OC3CC3)CCC12` (configuration not stated), `CCCc1c(OCCCOc2ccc3c(c2CCC)OC(C(=O)O)(C2CC2C(=O)O)CC3)ccc(C(C)=O)c1O` (configuration not stated) is higher in melting point: 104 to 106 °C for the first, 138 to 140 °C for the second.

Compared with `CN(C)c1ncc(-c2cc(Cl)cc(Cl)c2Cl)c(N)n1`, `Cc1cn(-c2cc(C)c3[nH]c(=O)ccc3c2)c(C)n1` is higher in melting point: 145 to 147 °C for the first, 322 to 325 °C for the second.

First: COc1ccc2c(c1)-c1c(ccn1C[C@@H](C)O)C2
Second: COc1ccccc1N(C)[C@@H](C)[C@H](O)c1ccccc1
The melting point of the first is lower: 75 °C for the first, 84 to 86 °C for the second.

First: Cc1cc(SC(Sc2cc(C)c(O)c(C(C)(C)C)c2)Sc2cc(C)c(O)c(C(C)(C)C)c2)cc(C(C)(C)C)c1O
Second: Cc1nc2cc(C#N)cc(C#N)c2[nH]1
The melting point of the first is lower: 171 to 172 °C for the first, 290 to 292 °C for the second.

First: Nc1n[nH]c2ccc(OCc3ccccc3)cc12
Second: CCOC(=O)CNC(=O)NCCCSc1nccc(NC(N)=NCC(F)(F)F)n1
The melting point of the first is higher: 193 to 195 °C for the first, 165 to 166 °C for the second.

With `CC1(C)CCOC1(O)Cn1cncn1` (configuration not stated) the melting point was 93 to 95 °C.
